PubChem BioAssay AID328 (DTP/NCI, 2004)
Inconclusive results and toxic doses are left out. Residues, ends and D or L forms follow the SMILES beside them.

System: BDF1 mice, P388 leukemia ip, median survival T/C
Assay: NCI In Vivo Anticancer Drug Screen. Data for tumor model P388 Leukemia (intraperitoneal) in B6D2F1 (BDF1) mice
Settings: endpoint: median survival time, higher = longer survival
Method in brief: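 Transplantable tumour in mice; compound vs vehicle dosing; survival scored; ratio of treated to control reported.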

[1] = dose: 100.0 mg/kg/injection, schedule: Q04DX003 (ip), vehicle: saline with Tween-80
[2] = dose: 200.0 mg/kg/injection, schedule: Q04DX003 (ip), vehicle: saline with Tween-80
[3] = dose: 400.0 mg/kg/injection, schedule: Q04DX003 (ip), vehicle: saline with Tween-80
[4] = dose: 100.0 mg/kg/injection, schedule: Q01DX009 (ip), vehicle: saline with Tween-80
[5] = dose: 200.0 mg/kg/injection, schedule: Q01DX009 (ip), vehicle: saline with Tween-80
[6] = dose: 50.0 mg/kg/injection, schedule: Q01DX009 (ip), vehicle: saline with Tween-80
[7] = dose: 100.0 mg/kg/injection, schedule: Q01DX009 (ip), vehicle: Klucel (hydroxypropylcellulose) (HPC)
[8] = dose: 100.0 mg/kg/injection, schedule: Q04DX003 (ip), vehicle: Klucel (hydroxypropylcellulose) (HPC)
[9] = dose: 200.0 mg/kg/injection, schedule: Q04DX003 (ip), vehicle: Klucel (hydroxypropylcellulose) (HPC)
[10] = dose: 400.0 mg/kg/injection, schedule: Q04DX003 (ip), vehicle: Klucel (hydroxypropylcellulose) (HPC)
[11] = dose: 50.0 mg/kg/injection, schedule: Q01DX009 (ip), vehicle: Klucel (hydroxypropylcellulose) (HPC)

Structure (SMILES): N#C/C(=C/c1ccccc1)CBr
- T/C (dose: 25.0 mg/kg/injection, schedule: Q01DX001 (ip), vehicle: saline with Tween-80): 102 % of control
- T/C (dose: 50.0 mg/kg/injection, schedule: Q01DX001 (ip), vehicle: saline with Tween-80): 93 % of control

Structure (SMILES): OCC(O)C(O)C(O)C(O)c1nc2ccccc2[nH]1 (stereo not drawn)
- T/C (dose: 50.0 mg/kg/injection, schedule: Q04DX003 (ip), vehicle: saline with Tween-80): 119 % of control
- T/C [1]: 97 % of control
- T/C [2]: 95 % of control
- T/C [3]: 103 % of control

Structure (SMILES): CC(N)C(=O)NC(C)C(=O)NC(C)C(=O)NC(C)C(=O)O (stereo not drawn) (H-AAAA-OH; configuration not given here)
- T/C (dose: 50.0 mg/kg/injection, schedule: Q01DX005 (ip), vehicle: saline): 93 % of control
- T/C (dose: 100.0 mg/kg/injection, schedule: Q01DX005 (ip), vehicle: saline): 98 % of control
- T/C (dose: 200.0 mg/kg/injection, schedule: Q01DX005 (ip), vehicle: saline): 105 % of control

Structure (SMILES): COC(OC)c1nc(SC)[nH]c(=O)c1C
- T/C [4]: 91 % of control
- T/C [1]: 100 % of control
- T/C [5]: 95 % of control
- T/C [2]: 100 % of control
- T/C [3]: 95 % of control

Structure (SMILES): Cn1cc(N)c2ccccc2c1=O
- T/C (dose: 50.0 mg/kg/injection, schedule: Q01DX005 (ip), vehicle: suspension in saline): 92 % of control
- T/C (dose: 100.0 mg/kg/injection, schedule: Q01DX005 (ip), vehicle: suspension in saline): 120 % of control

Structure (SMILES): CC(C)(C)NC(=S)Nc1ccc2c(c1)nc(-c1ccccc1)c1cc(NC(=S)NC(C)(C)C)ccc12
- T/C [1]: 111 % of control
- T/C [2]: 100 % of control

Structure (SMILES): CNc1ccccc1O
- T/C [6]: 102 % of control
- T/C [4]: 98 % of control
- T/C [5]: 95 % of control

Structure (SMILES): CC(C)CCOC(=O)Cc1ccccc1
- T/C [7]: 100 % of control
- T/C [8]: 90 % of control
- T/C (dose: 200.0 mg/kg/injection, schedule: Q01DX009 (ip), vehicle: Klucel (hydroxypropylcellulose) (HPC)): 115 % of control
- T/C [9]: 113 % of control
- T/C (dose: 400.0 mg/kg/injection, schedule: Q01DX009 (ip), vehicle: Klucel (hydroxypropylcellulose) (HPC)): 115 % of control
- T/C [10]: 118 % of control

Structure (SMILES): CN1CCN(CCNc2ccc(CO)c3sc4ccccc4c(=O)c23)CC1
- T/C (dose: 25.0 mg/kg/injection, schedule: Q01DX009 (ip), vehicle: Klucel (hydroxypropylcellulose) (HPC)): 120 % of control
- T/C [11]: 109 % of control
- T/C [7]: 151 % of control

Structure (SMILES): Cn1cnc([N+](=O)[O-])c1S(=O)(=O)NCN1CCOCC1
- T/C (dose: 12.5 mg/kg/injection, schedule: Q01DX009 (ip), vehicle: Klucel (hydroxypropylcellulose) (HPC)): 118 % of control
- T/C [11]: 121 % of control
- T/C [7]: 116 % of control

Structure (SMILES): SC1(SC2(S)CCCCC2)CCCCC1
- T/C [6]: 100 % of control
- T/C [4]: 100 % of control
- T/C [5]: 100 % of control

Structure (SMILES): O=S(=O)(Nc1ccc(O)c(Cl)c1)c1ccccc1
- T/C [4]: 86 % of control
- T/C [5]: 100 % of control
- T/C (dose: 400.0 mg/kg/injection, schedule: Q01DX009 (ip), vehicle: saline with Tween-80): 104 % of control

Structure (SMILES): CN1CCCC1c1cccnc1 (stereo not drawn)
- T/C (dose: 3.13 mg/kg/injection, schedule: Q01DX009 (ip), vehicle: saline): 109 % of control
- T/C (dose: 6.25 mg/kg/injection, schedule: Q01DX009 (ip), vehicle: saline): 109 % of control

Structure (SMILES): CNC1=CC(=O)C1(F)F
- T/C (dose: 25.0 mg/kg/injection, schedule: Q01DX001 (ip), vehicle: saline sonified): 100 % of control
- T/C (dose: 50.0 mg/kg/injection, schedule: Q01DX001 (ip), vehicle: saline sonified): 109 % of control
- T/C (dose: 100.0 mg/kg/injection, schedule: Q01DX001 (ip), vehicle: saline sonified): 100 % of control

Structure (SMILES): CCC(C)C(NC(=O)OCc1ccccc1)C(=O)ON1C(=O)CCC1=O (stereo not drawn)
- T/C [1]: 118 % of control
- T/C [3]: 109 % of control

Structure (SMILES): Nc1ncccc1C(=O)O
- T/C (dose: 62.5 mg/kg/injection, schedule: Q01DX010 (ip), vehicle: saline): 90 % of control
- T/C (dose: 125.0 mg/kg/injection, schedule: Q01DX010 (ip), vehicle: saline): 100 % of control
- T/C (dose: 250.0 mg/kg/injection, schedule: Q01DX010 (ip), vehicle: carboxymethylcellulose (CMC)): 113 % of control
- T/C (dose: 500.0 mg/kg/injection, schedule: Q01DX010 (ip), vehicle: carboxymethylcellulose (CMC)): 100 % of control

Structure (SMILES): BrC1CCCCCC(Br)C12OCCO2 (stereo not drawn)
- T/C [8]: 100 % of control
- T/C [9]: 95 % of control
- T/C [10]: 100 % of control
